Measurements published in US20160304461A1, “QUINOLONE COMPOUND AND PHARMACEUTICAL COMPOSITION” (OTSUKA PHARMACEUTICAL CO., LTD., priority 2007, published 2016).

Experiments:
[1] = system: human neuroblastoma cell lines SH-SY5Y; assay: Improvement of mitochondrial dysfunction in MPP+-treated SH-SY5Y cells (Alamar Blue mitochondrial oxidation reduction activity); assay type: cell-based; settings: SH-SY5Y cells in 1.5 mM MPP+ medium, relative to cells in DMSO alone = 100%, read-out: Fluorescence Intensity (%); for activity at 0.01 µg/mL: test compound 0.01 μg/ml; for activity at 0.03 µg/mL: test compound 0.03 μg/ml; for activity at 0.1 µg/mL: test compound 0.1 μg/ml; for activity at 0.3 µg/mL: test compound 0.3 μg/ml; for activity at 1 µg/mL: test compound 1 μg/ml
Description: Evaluation of Improvement of Mitochondrial Dysfunction using Human Neuroblastoma Cell Lines SH-SY5Y Treated with 1-methyl-4-phenylpyridinium (MPP^+)
In human neuroblastoma cell lines SH-SY5Y in which mitochondrial activity was injured by MPP^+ treatment (Bollimuntha S. et al., J Biol Chem, 280, 2132-2140 (2005) and Shang T. et al., J Biol Chem, 280, 34644-34653 (2005)), improvement of the mitochondrial dysfunction was evaluated on the basis of the measurement value of the mitochondrial oxidation reduction activity using Alamar Blue fluorescent dye after the compound addition (Nakai M. et. al, Exp Neurol, 179, 103-110 (2003)).
The human neuroblastoma cell lines SH-SY5Y were cultured in Dulbecco's Modified Eagle's Medium containing 10% fetal bovine serum (DMEM containing 50 units/ml penicillin and 50 μg/ml streptomycin as antibiotics) at 37° C. in the presence of 5% carbon dioxide. Cells were scattered on a poly-D-lysine-coated 96-well black plate at a concentration of 3-6×10^4 cells/cm^2 (medium amount: 100 μl/well), and cultured in the above medium for two days. Further, the medium was changed to a DMEM containing a 1% N2 supplement (N2-DMEM) or to a medium (100 μl/well) in which 1.5 mM MPP^+ was dissolved. The cells were cultured therein for 39 to 48 hours, and then subjected to a mitochondrial oxidation reduction activity measurement system. A sample compound that had been previously dissolved in dimethyl sulfoxide (DMSO) was diluted with N2-DMEM, and added in a volume of 10 μl/well 24 hours before the activity measurement (final compound concentration: 0.01 to 1 μg/ml).
After removal of the medium by suction, a balanced salt solution containing 10% Alamar Blue (154 mM sodium chloride, 5.6 mM potassium chloride, 2.3 mM calcium chloride, 1.0 mM magnesium chloride, 3.6 mM sodium bicarbonate, 5 mM glucose, 5 mM HEPES, pH 7.2) was added in a volume of 100 μl/well, and reacted in an incubator at 37° C. for 1 hour. The fluorescent intensity was detected using a fluorescence detector (a product of Hamamatsu Photonics K.K., excitation wavelength 530 nm, measurement wavelength 580 nm) to thereby measure the mitochondrial oxidation reduction activity.
The fluorescent intensity of the well of the cells cultured in a medium containing MPP^+ and in each of the sample compounds was relatively evaluated based on a 100% fluorescent intensity of the well of the cells cultured in a medium containing DMSO alone (final concentration: 0.1%).

Row | Compound | melting point | activity at 0.01 µg/mL [1] | activity at 0.03 µg/mL [1] | activity at 0.1 µg/mL [1] | activity at 0.3 µg/mL [1] | activity at 1 µg/mL [1]
1 | COc1ccc(-c2c[nH]c3c(-c4ccsc4)ccc(F)c3c2=O)cc1 [Example 87, 5-Fluoro-3-(4-methoxyphenyl)-8-thiophen-3-yl-1H-quinolin-4-one] | 183 to 184 °C | 63% | 66% | 79% | 63% | 51%
2 | CCCOc1ccc(F)c2c(=O)c(-c3ccc(OC)nc3)c[nH]c12 [Example 63, 5-Fluoro-3-(6-methoxypyridin-3-yl)-8-propoxy-1H-quinolin-4-one] | 215 to 216 °C | 58% | 65% | 74% | 75% | 85%
3 | CCCOc1ccc(F)c2c(=O)c(-c3ccc(CC)cc3)c(C)[nH]c12 [Example 71, 3-(4-Ethylphenyl)-5-fluoro-2-methyl-8-propoxy-1H-quinolin-4-one] | 221 to 222 °C | 56% | 61% | 73% | 78% | 72%
